Laboratory results published in US10688153B2, “Peptides and method for treatment of cardiac arrest” (THE BOARD OF TRUSTEES OF THE UNIVERSITY OF ILLINOIS, priority 2015, dated 2020).
Ends that are not written are not given here.

Tests used:
[1] = tested on: mouse model of SCA; conditions: Li et al. 2015; cited from earlier work
[2] = tested on: mouse model of SCA; experiment: Blood sorbitol and taurine concentrations in mouse model of SCA; assay type: in vivo
Text: Metabolism alteration and energy production are critical outcomes following SCA. Using a mouse model of SCA (Li, et al. (2015) Am. J. Physiol. Heart Circ. Physiol. 308:H1414-22), several metabolic compounds were identified as diagnostic markers for use in guiding the selection of treatment protocols (e.g., active cooling, therapeutic hypothermia, or modified PDZ binding domain peptide therapies).

[3] = molecular target: PTEN (Homo sapiens, UniProt P60484); conditions: cited from earlier work
Chain of PTEN (P60484 whole entry, species assumed): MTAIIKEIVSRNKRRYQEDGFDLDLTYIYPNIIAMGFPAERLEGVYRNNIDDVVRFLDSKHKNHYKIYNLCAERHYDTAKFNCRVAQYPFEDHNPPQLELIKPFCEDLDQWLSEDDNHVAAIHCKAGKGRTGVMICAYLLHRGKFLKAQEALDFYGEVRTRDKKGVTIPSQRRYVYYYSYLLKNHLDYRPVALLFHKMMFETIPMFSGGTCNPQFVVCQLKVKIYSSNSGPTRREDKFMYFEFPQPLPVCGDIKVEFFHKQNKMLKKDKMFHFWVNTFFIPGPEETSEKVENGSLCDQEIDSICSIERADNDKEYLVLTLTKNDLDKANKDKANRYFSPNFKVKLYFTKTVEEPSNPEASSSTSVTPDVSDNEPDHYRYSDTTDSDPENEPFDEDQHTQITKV

[4] = tested on: cell death; conditions: Zhu et al. 2014, cited from earlier work
[5] = tested on: C57BL6 mice; experiment: Potassium-induced SCA protocol, nicotinamide during CPR plus TAT-PTEN9c after ROSC (Example 3); assay type: in vivo, mouse; conditions: about 12 minute down time
Experimental: The benefit of co-administration of nicotinamide (NAM) with TAT-PTEN9c was evaluated. C57BL6 mice were subjected to an established potassium-induced 8-minute SCA protocol. Nicotinamide (Vitamin B3) was administered during CPR and TAT-PTEN9c was administered after ROSC with about a 12 minute down time for each group.

[6] = tested on: C57BL6 mice; experiment: Potassium-induced 8-minute SCA protocol, peptide IV immediately after ROSC (Example 1); assay type: in vivo, mouse
Text: (§1) Mouse cardiomyocytes were isolated from 1-3 day old mouse pups according to known methods (Zhu, et al. (2014) PLoS One 9:e95622). Western blot analysis was used to determine the efficacy of a representative peptide of the invention (TAT-PTEN9c) for enhancing Akt phosphorylation in mouse cardiomyocytes exposed to oxidant (H2O2) or IGF-1. C57BL6 mice were subjected to an established potassium-induced 8-minute SCA protocol (Li, et al. (2015) Am. J. Physiol. Heart Circ. Physiol. 308:H1414-22). Mean arterial blood pressure (MAP), end-tidal CO2 (EtCO2), body temperature and electrocardiogram (ECG) were recorded until […] after successful cardiopulmonary resuscitation (CPR). TAT-PTEN9c (7.5 mg/kg) or saline was given intravenously (IV) immediately after ROSC. A mouse survival curve was generated by Kaplan-Meyer analysis. IV administration of TAT-GFP was used to measure the kinetics of heart and brain tissue TAT protein delivery.

[7] = tested on: Akt phosphorylation in mouse cardiomyocytes; experiment: Western blot of Akt phosphorylation in mouse cardiomyocytes exposed to H2O2 or IGF-1; assay type: cell-based
Text: as §1

[8] = tested on: C57BL6 mice; experiment: Potassium-induced 8-minute SCA protocol, timing of administration during CPR or after ROSC (Example 2); assay type: in vivo, mouse; conditions: for MAP: 7.5 mg/kg IV administered after ROSC
Experimental: To determine timing of modified peptide administration, TAT-PTEN9c was administrated during CPR or after ROSC. C57BL6 mice were subjected to an established potassium-induced 8-minute SCA protocol (Li, et al. (2015) Am. J. Physiol. Heart Circ. Physiol. 308:H1414-22). Mean arterial blood pressure (MAP) was recorded until 4 hours after successful CPR. TAT-PTEN9c (7.5 mg/kg) or saline (NS) was given intravenously (IV) during CPR and immediately after ROSC.

[9] = 240 minutes, 7.5 mg/kg IV immediately after ROSC

Molecule: O=C(O)c1ncccc1O.O=C(O)c1ncccc1O.[O]=[V][O-] [VO-OHpic]
- recovery and survival [1]: improved recovery and survival
- blood sorbitol concentration [2]: reduced
- blood taurine concentration [2]: reduced
- inhibition of PTEN [3]: potent inhibition
- reduction in cell death ([4]; I/R injury): almost four-fold reduction
- phosphorylated Akt [4]: significant increase

Molecule: NC(=O)c1cccnc1 [nicotinamide]
- survival time of all mice [5]: less than 1 hours

Molecule: YGRKKRRQRRRDQHSQITKV (not fully specified (C-terminus)) [TAT-PTEN9c, 20-residue peptide: Tat transduction domain plus C-terminal 9 residues of mouse PTEN]
- brain tissue sorbitol content ([6]; 15 (R15) and 30 (R30) minutes after ROSC, vs saline control (NS), FIG. 3): significantly decreased
- EtCO2 [6, 9]: 36.2 ± 6.7 mmHg
- Heart Rate [6, 9]: 502.0 ± 62.2 bpm
- MAP [6, 9]: 52.7 ± 9.3 mmHg
- Survival (%) [6, 9]: 66.7%
- survival of mice after cardiac arrest ([6]; administered immediately after ROSC, vs saline control, FIG. 4): significantly improves survival
- time to Akt activation after administration ([7]; FIG. 1C): ≤ 10 min
- Akt activation in response to H2O2 ([7]; H2O2, concentration-dependent, FIG. 1A): enhances Akt activation
- Akt activation in response to IGF-1 ([7]; IGF-1, concentration-dependent, FIG. 1B): enhances Akt activation
- resuscitation rate ([8]; 7.5 mg/kg IV administered during CPR): no improvement
- MAP ([8]; 30 minutes after ROSC): 65.2±1.1 mmHg
- MAP ([8]; 4 hours after ROSC, p<0.05 vs NS): 49.9±0.7 mmHg
